Measured values: ChEMBL document CHEMBL6115007, “Synthesis and in vitro and in vivo evaluation of novel bivalent quinolines as antitumor agents via targeting autophagy in cervical cancer” (Eur J Med Chem, 2025)
pIC50: −log10 of the molar value. Activity calls are given as the source filed them. The calls are words filed in the database; no cut-off is given here.

What was measured:
MCF7 = test: Antiproliferative activity against human MCF7 cells assessed as reduction in cell optical density incubated for 48 hrs by MTT assay; type: functional, cell-based; settings: MCF7, 48 h
HeLa [1] = test: Effect on ACSL4 protein expression level in human HeLa cells at 0.6 uM incubated for 24 hrs by Western blot analysis; type: functional, cell-based
HeLa [2] = test: Induction of apoptosis in human HeLa cells assessed as late apoptotic cells at 1.2 uM incubated for 24 hrs by Annexin V-FITC/PI staining based flow cytometric analysis (reference value: 0.94 %); type: functional
HeLa [3] = test: Induction of autophagy in human HeLa cells transfected with mRFP-GFP-LC3 plasmid assessed as decrease in GFP fluorescence at 0.4 to 0.8 uM incubated for 24 hrs by DAPI staining based fluorescence confocal microscopic analysis; type: functional, cell-based; settings: dose 0.4-0.8 µM
Ca-Ski [4] = test: Induction of apoptosis in human Ca Ski cells assessed as necrotic cells at 1 uM incubated for 24 hrs by Annexin V-FITC/PI staining based flow cytometric analysis (reference value: 3.15 %); type: functional
HeLa [5] = test: Antiproliferative activity against ATG5 deficient human HeLa cells assessed as inhibition of cell viability incubated for 24 hrs by CCK8 assay; type: functional, cell-based
BGC-823 = test: Antiproliferative activity against human BGC-823 cells assessed as reduction in cell optical density incubated for 48 hrs by MTT assay; type: functional, cell-based; settings: BGC-823, 48 h
Ca-Ski [6] = test: Induction of autophagy in human Ca Ski cells transfected with mRFP-GFP-LC3 plasmid assessed as decrease in GFP fluorescence at 0.3 to 0.6 uM incubated for 24 hrs by DAPI staining based fluorescence confocal microscopic analysis; type: functional, cell-based; settings: dose 0.3-0.6 µM
Ca-Ski [7] = test: Induction of apoptosis in human Ca Ski cells assessed as late apoptotic cells at 0.5 uM incubated for 24 hrs by Annexin V-FITC/PI staining based flow cytometric analysis (reference value: 5.33 %); type: functional
Ca-Ski [8] = test: Induction of apoptosis in human Ca Ski cells assessed as early apoptotic cells at 1 uM incubated for 24 hrs by Annexin V-FITC/PI staining based flow cytometric analysis (reference value: 4.76 %); type: functional
[9] = Toxicity in female BALB/c mouse xenografted with human HeLa cells assessed as effect on liver at 4 to 8 mg/kg administered every four days and measured after 26 days by H and E staining based analysis; type: organism-based; settings: in vivo, 624 h, dose 4-8 mg/kg, time 26 day
HeLa [10] = test: Induction of morphological changes in human HeLa cells assessed as increase in inflated cell appearance at 0.6 to 2.4 uM by microphotographic analysis; type: functional, cell-based; settings: dose 0.6-2.4 µM
SiHa [11] = test: Antiproliferative activity against human SiHa cells assessed as inhibition of cell viability incubated for 24 hrs by CCK8 assay; type: functional, cell-based
HeLa [12] = test: Effect on PARP expression level in Bax deficient human HeLa cells at 0.6 to 1.2 uM incubated for 24 hrs by Western blot analysis; type: functional, cell-based; settings: dose 0.6-1.2 µM
HeLa [13] = test: Induction of apoptosis in human HeLa cells assessed as viable cells at 0.6 uM preincubated with Z-VAD-FMK for 1 hrs followed by compound addition and measured after 24 hrs by Annexin V-FITC/PI staining based flow cytometric analysis (reference value: 95.8 %); type: functional; settings: read-out: Activity
C-33-A [14] = test: Antiproliferative activity against human C-33-A cells assessed as inhibition of cell growth at 0.3 to 1.2 uM by CCK8 assay; type: functional, cell-based; settings: dose 0.3-1.2 µM, time 6.0 day
HeLa [15] = test: Induction of morphological changes in human HeLa cells assessed as increase in appearance of round cells at 0.6 to 2.4 uM by microphotographic analysis; type: functional, cell-based; settings: dose 0.6-2.4 µM
HeLa [16] = test: Induction of autophagy in ATG5 deficient human HeLa cells assessed as increase in LC3-II expression at 0.6 to 1.2 uM incubated for 24 hrs by Western blot analysis; type: functional, cell-based; settings: dose 0.6-1.2 µM
HeLa [17] = test: Induction of apoptosis in human HeLa cells assessed as late apoptotic cells at 0.6 uM preincubated with Z-VAD-FMK for 1 hrs followed by compound addition and measured after 24 hrs by Annexin V-FITC/PI staining based flow cytometric analysis (reference value: 1.02 %); type: functional
SiHa [18] = test: Inhibition of colony formation in human SiHa cells assessed as reduction in colony forming unit count at 0.1 to 0.4 uM incubated for 24 hrs by crystal violet staining based analysis; type: functional, cell-based; settings: dose 0.1-0.4 µM
HeLa [19] = test: Induction of apoptosis in human HeLa cells assessed as early apoptotic cells at 1.2 uM preincubated with Z-VAD-FMK for 1 hrs followed by compound addition and measured after 24 hrs by Annexin V-FITC/PI staining based flow cytometric analysis (reference value: 0.96 %); type: functional
Ca-Ski [20] = test: Induction of morphological changes in human Ca Ski cells assessed as increase in appearance of round cells at 0.5 to 2 uM by microphotographic analysis; type: functional, cell-based; settings: dose 0.5-2 µM
HCT-116 = test: Antiproliferative activity against human HCT-116 cells assessed as reduction in cell optical density incubated for 48 hrs by MTT assay; type: functional, cell-based; settings: HCT-116, 48 h
HeLa [21] = test: Induction of autophagy in human HeLa cells assessed as increase in LC3-I conversion to LC3-II at 0.3 to 1.2 microM incubated for 24 hrs by Western blot analysis; type: functional, cell-based; settings: dose 0.3-1.2 µM
Ca-Ski [22] = test: Induction of autophagy in ATG7 deficient human Ca Ski cells assessed as increase in LC3-II expression at 0.5 to 1 uM incubated for 24 hrs by Western blot analysis; type: functional, cell-based; settings: dose 0.5-1 µM
C-33-A [23] = test: Antiproliferative activity against human C-33-A cells assessed as inhibition of cell viability incubated for 24 hrs by CCK8 assay; type: functional, cell-based
HeLa [24] = test: Antitumor activity against human HeLa cells xenografted in female BALB/c mouse assessed as reduction in tumor growth at 4 to 8 mg/kg administered every four days and measured after 26 days; type: functional, organism-based; settings: dose 4-8 mg/kg, time 26.0 day
HeLa [25] = test: Induction of morphological changes in human HeLa cells assessed as decrease in cell adherence to culture dish at 0.6 to 2.4 uM by microphotographic analysis; type: functional, cell-based; settings: dose 0.6-2.4 µM
HeLa [26] = test: Antiproliferative activity against human HeLa cells assessed as inhibition of cell growth at 0.4 to 1.6 uM by CCK8 assay; type: functional, cell-based; settings: dose 0.4-1.6 µM, time 6.0 day
HeLa [27] = test: Inhibition of cell migration in human HeLa cells at 0.6 to 1.2 uM measured after 48 hrs by cell scratch assay; type: functional, cell-based; settings: dose 0.6-1.2 µM
HeLa [28] = test: Effect on ferroptosis pathway related gene expression in human HeLa cells at 1.2 uM incubated for 24 hrs by GSVA enrichment analysis; type: functional, cell-based
SiHa [29] = test: Antiproliferative activity against human SiHa cells assessed as inhibition of cell growth at 0.4 to 1.6 uM by CCK8 assay; type: functional, cell-based; settings: dose 0.4-1.6 µM, time 6.0 day
HeLa [30] = test: Inhibition of colony formation in ATG7 deficient human HeLa cells at 0.15 to 0.6 uM incubated for 24 hrs by crystal violet staining based analysis; type: functional, cell-based; settings: dose 0.15-0.6 µM

For COc1cccc(Nc2ccnc3cc(OCCCCCOc4ccc5c(Nc6cccc(OC)c6)ccnc5c4)ccc23)c1, the pIC50 (MCF7) was 5.51, the Activity (HeLa [1]) was “Moderate_effect” and the Activity (HeLa [2]) was 4.11%. The Activity (HeLa [3]) was “Active”, the Activity (Ca-Ski [4]) was 2.98% and the pIC50 (HeLa [5]) was 5.79. For the same compound, the pIC50 (BGC-823) was 5.39, the Activity (Ca-Ski [6]) was “Active” and the Activity (Ca-Ski [7]) was 5.88%. For the same compound, the Activity (Ca-Ski [8]) was 7.2%, the Activity [9] was “Non-toxic” and the Activity (HeLa [10]) was “Active”. For the same compound, the Activity (SiHa [11]) was “Dose-dependent-effect”, the pIC50 (SiHa [11]) was 5.84 and the Activity (HeLa [12]) was “inactive”. For the same compound, the viability at 0.6 µM (HeLa [13]) was 94.9%, the Activity (C-33-A [14]) was “Time-dependent-effect” and the Activity (HeLa [15]) was “Active”. The Activity (HeLa [16]) was “inactive”, the Activity (HeLa [17]) was 2.8% and the inhibition (SiHa [18]) was “Active”. For the same compound, the Activity (HeLa [19]) was 1.22%, the Activity (Ca-Ski [20]) was “Active” and the pIC50 (HCT-116) was 6.59. For the same compound, the Activity (HeLa [21]) was “Active”, the Activity (Ca-Ski [22]) was “inactive” and the Activity (C-33-A [23]) was “Dose-dependent-effect”. The pIC50 (C-33-A [23]) was 6.09, the Activity (HeLa [24]) was “Active” and the Activity (HeLa [25]) was “Active”. For the same compound, the Activity (HeLa [26]) was “Time-dependent-effect”, the inhibition (HeLa [27]) was “Active” and the Activity (HeLa [28]) was “Minimal_effect”. The Activity (SiHa [29]) was “Time-dependent-effect” and the inhibition (HeLa [30]) was “Minimal_effect”.
